Results: US20050261130A1, “Novel surfactants and formulations” (Monsanto Technology LLC, priority 2000, published 2005)

How the values were obtained:
Assay type in all cases: physicochemical
[1] = Birefringence test for anisotropic aggregates on wax-coated slide; design: key: Y is yes; N is no; settings: surfactant in IPA glyphosate formulation
Method: To determine whether a herbicidal formulation comprising glyphosate or a salt or ester thereof and a surfactant forms anisotropic aggregates on the foliage of a plant comprising the surfactant, the following birefringence testing procedure may be utilized.
First, a wax-coated slide is prepared. A preferred wax for preparing the slide is a blend of carnauba wax and beeswax in a weight/weight ratio of approximately 10:1, respectively. A clear wax mixture is prepared consisting of about 5% carnauba wax and about 0.5% beeswax in isopropanol, and is maintained at a temperature of approximately 82° C. The end of a glass 2.4 cm×7.2 cm microscope slide is immersed perpendicularly in the wax mixture to a depth of approximately one-third of the length of the slide. After about 10 to 15 seconds, the slide is very slowly and steadily withdrawn from the wax mixture and allowed to cool, leaving a wax layer deposited on both faces of the slide.
Visual examination of the slide can give a preliminary indication of the thickness and uniformity of the wax coating. If imperfections are evident the slide is rejected. […] Further evaluation of the acceptability of the wax-coated slide for the test is done by examining the slide under a microscope. The slide is selected for use in the test if, on microscopic examination using a 4.9× objective, the wax coating is uniformly thick and there is uniform density of wax particles across the slide.
The next stage in the procedure is to conduct the test.
The following instrumentation, or equivalent, items are required or useful for the test procedure: • Nikon SMZ-10A stereoscopic microscope equipped for polarized light observation, photomicrography, and video observation and recording. • 3CCD MTI camera. • Diagnostic Instruments 150 IL-PS power supply. • Sony Trinitron color video monitor, model PVM-1353MD. • Mitsubishi time-lapse video cassette recorder, model HS-S5600. • Hewlett Packard Pavillion 7270 computer, with Windows 95 and Image-Pro • Plus version 2.0 electronic imaging program installed. • Hewlett Packard Deskjet 870Cse printer.
For testing, a wax-coated slide, prepared and selected as described above, is positioned on the microscope stage, with the system set to provide transmitted light, both straight and polarized. A 1 microliter drop of the sample to be tested is applied to the wax surface using a thoroughly cleaned 1 microliter Hamilton syringe. This and subsequent operations are followed through the microscope at 4.9× objective. Duplicate or triplicate tests are done for each composition. Numerous tests can be conducted simultaneously on a single slide. Progression of change in the microscopic appearance of the sample is observed through the microscope and recorded at designated time intervals. Useful intervals are 1 minute, 10 minutes, 2 hours and greater than 24 hours after application of the drop to the wax surface. Observations can also be made at intermediate times to capture possible significant transitions occurring at such times.
The temperature of the wax layer tends to increase with prolonged exposure to the microscope light. […] However, in some cases temperature does affect the outcome of the test and in such cases it is preferred to illuminate the sample only for the short periods necessary to make observations, so that the temperature of the wax layer remains close to ambient temperature.
At dark field (polarized light) the wax layer is observed for birefringence, and at light field the character of the drop surface is observed, at each time interval. The following records are preferably made: • birefringence (y/n); • time of initial appearance of birefringence; • character of the birefringence; • appearance of drop surface as composition “dries”; • degree of spread of the drop; • effects of temperature (warming of the slide) if any; • other noticeable changes.

[2] = Specific gravity (Mettler DA-300 Density/Specific Gravity Meter); settings: 20/15.6° C.; 30% a.e. by weight glyphosate monobasic salt solutions
Method: Specific gravities are measured using a Mettler DA-300 Density/Specific Gravity Meter.

[3] = Compatibility of surfactant with potassium glyphosate concentrate (no phase separation, 50° C., 1 week); settings: 50° C. oven 1 week; for Compatible w/37% a.e. K + glyphosate at 12 wt % loading: 37 wt. % a.e. potassium glyphosate/12 wt. % surfactant; for Compatible w/45% a.e. K + glyphosate at 15% wt loading: 45 wt. % a.e. potassium glyphosate/15 wt. % surfactant
Method: For the 31 wt. % a.e. potassium glyphosate/10 wt. % surfactant compositions: 1.550 g of 40 wt. % a.e. aqueous glyphosate potassium salt solution was weighed into a vial. To the same vial, 0.200 g of surfactant was added. Enough deionized water was then added to the contents to bring the total weight to 2.000g. The mixture was stirred for 2 hours at room temperature and checked to see if a solution had been formed. If a solution was present, the test vial was allowed to stand at room temperature overnight. If a solution was still present, the test vial was placed in a 50° C. oven for 1 week. If no phase separation had occurred in one week, the surfactant being tested was considered “compatible.” All of the surfactants identified in Table 4 were compatible at the 31% a.e. potassium/10 wt. % surfactant loading.
For the 37 wt. % a.e. potassium glyphosate/12 wt. % surfactant compositions: 41.1 g of 45 wt. % a.e. aqueous glyphosate potassium salt was weighed to a container. To the same container was added 6.0 g of surfactant and 2.9 g deionized water for a total weight of 50.0 g. The remainder of the protocol is the same as that described for the 31 wt. % samples. The surfactants identified in Table 4 that were compatible at the 37% a.e. potassium/12 wt. % surfactant loading are indicated in Table 5 below.
For the 40 wt. % a.e. potassium glyphosate/10 wt. % surfactant compositions: 1.79 g of 45 wt. % a.e. aqueous glyphosate potassium salt was weighed into a vial. To the same vial was added 0.2 g of surfactant. The remainder of the protocol is the same as that described for the 31 wt. % samples. The surfactants identified in Table 4 that were compatible at the 40% a.e. potassium/10 wt. % surfactant loading are indicated in Table 5 below.
For the 45 wt. % a.e. potassium glyphosate/15 wt. % surfactant compositions: 1.100 g of solid mono potassium glyphosate was weighed into a vial. To the same vial was added 0.300 g surfactant. Enough deionized water was added to the vial to bring the final weight to 2.000 g. The remainder of the protocol is the same as that described for the 31 wt. % samples. The surfactants identified in Table 4 that were compatible at the 45% a.e. potassium/[…] are indicated in Table 5 below.

[4] = Compatibility of surfactant with diammonium glyphosate concentrate (no phase separation, 50° C., 1 week); settings: 50° C. oven 1 week; for Compatible w/31% a.e. diammonium glyphosate at 10 wt % loading: 31 wt. % a.e. diammonium glyphosate/10 wt. % surfactant; for Compatible w/37% a.e. diammonium glyphosate at 12 wt % loading: 37 wt. % a.e. diammonium glyphosate/12 wt. % surfactant
Method: For the 31 wt. % a.e. NH4^+glyphosate/10 wt. % surfactant compositions: • 1.48 g of 41.9 wt % a.e. aqueous glyphosate diammonium (1.7 eq) salt was weighed into a vial. To the same vial was added 0.2 g of surfactant and 0.32 g deionized water. The remainder of the protocol is the same as that described for the 31 wt % potassium glyphosate samples. The surfactants identified in Table 4 that were compatible at the 31% a.e. ammonium/10 wt. % surfactant loading are indicated in Table 5 below.
For the 37 wt. % a.e. NH4^+glyphosate/12 wt. % surfactant compositions: • 1.76 g of 41.9 wt % a.e. aqueous glyphosate diammonium (1.7 eq) salt was weighed into a vial. To the same vial was added […]. The remainder of the protocol is the same as that described for the 31 wt % potassium glyphosate samples. The surfactants identified in Table 4 that were compatible at the 37% a.e. ammonium/12 wt. % surfactant loading are indicated in Table 5 below.

Compound	AA (anisotropic aggregate) [1]	Compatible w/37% a.e. K + glyphosate at 12 wt % loading [3]	Compatible w/31% a.e. diammonium glyphosate at 10 wt % loading [4]	Compatible w/37% a.e. diammonium glyphosate at 12 wt % loading [4]	other results
CCCCCCCCCCCCCCCCN(C)CCN(C)CCCCCCCCCCCCCCCC	Y				
CCN.O=C(O)CNCP(=O)(O)O					Specific Gravity [2]: 1.1599
CCCN.O=C(O)CNCP(=O)(O)O					Specific Gravity [2]: 1.1429
CCCCC(CC)COP(=O)(O)O (stereo not drawn) [2-ethylhexyl phosphate]	N				
CCCCCCCCNC(CO)(CO)CO [EEE]		Yes	Yes	Yes	Compatible w/45% a.e. K + glyphosate at 15% wt loading [3]: No
CCCCCCCCCCCCNC(CO)(CO)CO [FFF]			No	No	
CCCCCCCCCCN(C)CCN(C)CCCCCCCCCC [Gemini 10-2-10]	Y				
CCCCCCCCCCN(C)CCCN(C)CCCCCCCCCC [Gemini 10-3-10]	Y				
CCCCCCCCCCN(C)CCCCN(C)CCCCCCCCCC [Gemini 10-4-10]	Y				
CCCCCCCCCCCCOCCOCCOCCOCCN(C)C [HHH]			No		
CCCCCCCCCCCCCCCCOCCOCCOCCOCCOCCOCCOCCOCCOCCOCCNCCCN [KKK]		Probably			Compatible w/45% a.e. K + glyphosate at 15% wt loading [3]: Yes, but minor
CCCCCCCCCCCCCCCCOCCOCCOCCOCCOCCOCCOCCOCCOCCOCCN(C)CCN(C)C [MMM]		Yes	Yes		
CCCCCCCCCCCCCCCCOCCOCCOCCOCCOCCOCCOCCOCCOCCOCCN(C)CC(O)C(O)C(O)C(O)CO (stereo not drawn) [OOO]		Probably	No	Yes	
CCCCCCCCCCCCCCCCOCCOCCOCCOCCOCCOCCOCCOCCOCCOCCOCCOCCOCCOCCOCCOCCOCCOCCOCCOCCN(C)CC(O)C(O)C(O)C(O)CO (stereo not drawn) [PPP]		No	No	No	
CCCCCCCCCCCCCCCCOCCOCCOCCOCCOCCOCCOCCOCCOCCOCCOCCOCCOCCOCCOCCOCCOCCOCCOCCOCCN(C)CC(O)CO (stereo not drawn) [QQQ]		No	No	No	
CCCCCCCCCCCCN(C)CC(O)C(O)C(O)C(O)CO (stereo not drawn) [RR]		Yes	Yes	Yes	Compatible w/45% a.e. K + glyphosate at 15% wt loading [3]: Yes
CCCCCCCCCCCCCCCCCCN(C)CCOCCOCCOCCOCCOCCOCCOC [Surfactant C, α-methyl-ω-(N-methyloctadecylamino)poly(oxy-1,2-ethanediyl)]			No		
CCCCCCCCN(CCCN(CCCCCCCC)CC(O)C(O)C(O)C(O)CO)CC(O)C(O)C(O)C(O)CO (stereo not drawn) [Surfactant CCC, 1,8 hexylaminoglucitol octane]		Yes			Compatible w/45% a.e. K + glyphosate at 15% wt loading [3]: Yes
CN(CCCCCCCCCCCCN(C)CC(O)C(O)C(O)C(O)CO)CC(O)C(O)C(O)C(O)CO (stereo not drawn) [Surfactant ZZ, 1,12 methylaminoglucitoldodecane]		Yes			Compatible w/45% a.e. K + glyphosate at 15% wt loading [3]: Yes
CCCCCCCCCCCC[N+](C)(C)C [VVV]			Yes	No	
CCCCCCCCCCCC[N+](C)(C)CC(O)C(O)C(O)C(O)CO (stereo not drawn) [XX]		No	Yes	No	
CCCCCCCCCCCCCCCCCC[N+](C)(C)CC(O)C(O)C(O)C(O)CO (stereo not drawn) [YY]		No	Yes	No	
CCCCCCCC(=O)O [caprylic acid]	N				
CCCCCCCCCCN(C)C [drawing 146 w=10]	N				
CCCCCCCC/C=C\CCCCCCCC(=O)O [oleic acid]	Y				
CCCCCCCCCCCCCCCC(=O)O [palmitic acid]	Y				
CCCCCCCCCCCCOS(=O)(=O)[O-].[Na+] [sodium lauryl sulfate]	Y				
CCCCCCCCCCCCCCCCCC(=O)O [stearic acid]	Y				
laureth-3 phosphate	N				
